Where two headings read alike, the source gives them in different places.
How the values were obtained:
[1] = tested on: 7-ethoxyresorufin-o-deethylase (EROD) activity in a rainbow trout liver cell line (RTL-W1); experiment: Induction of EROD activity in RTL-W1 cells; assay type: cell-based; conditions: Oncorhynchus mykiss
Experimental: For toxicity tests, reporter cells or molecules are preferably added to chambers in an appropriate culture medium. An appropriate liquid culture medium is one that will maintain reporter cell vitality (or reporter molecule integrity) and support expression of a chosen endpoint in the toxicological test. For example for the experiment depicted in FIG. 8, liver cells from rainbow trout (RTL-W1 cells) were added in Leibovitz' L-15 medium that contained 5% fetal bovine serum as a supplement (Bols et al., 1999). The reporters are left to desorb or interact with the chemicals at the sampler surface for a predetermined time. […] After a predetermined exposure time, the reporter cells are evaluated for the expression of toxicity. […] Other examples of toxicological endpoints would be the disruption of metabolic activity or the loss of cell membrane integrity in cultured cells, which can be measured using the fluorescent indicator dyes alamar Blue and CFDA-AM (Schirmer et al., 2000a/b), or the modulation of light emission in luminescent bacteria (Bitton and Koopman, 1992). Although not essential to the method, the arrangement of chambers in a multiwell plate format and the use of fluorescent indicator dyes or light emission is advantageous because of recent developments in automated fluorescence/luminescence multiwell plate readers. Plates with […] can be analyzed in seconds. […]

[2] = Experimental: For these experiments fluoranthene was dissolved in the aqueous medium, L-15/ex, to yield 297 nM (60 ng/ml) of fluoranthene. The fluoranthene solution was added once to empty wells of tissue culture plates, and 10 min, 2, 4, and 24 h later, the medium was removed and culture wells extracted with methanol in order to solubilize fluoranthene that had adsorbed to the culture surface. The concentration of fluoranthene in the methanol extracts was subsequently determined by high performance liquid chromatography (HPLC) and expressed as a percentage of the initial concentration, 297 nM.

In the case of c1ccc2cc3c(cc2c1)-c1cccc2cccc-3c12 [BkF, benzo[k]fluoranthene], the EC50 ([1]; BkF added in dissolved form to wells after cell attachment (conventional method), RTL-W1 cells, read-out: EC50 of EROD induction, dissolved BkF) is reported as 8.6 nM and the EC50 ([1]; BkF adsorbed to polystyrene culture wells prior to cell attachment, RTL-W1 cells attached 24 h before EROD measurement, read-out: EC50 of EROD induction, sorbed BkF) is reported as 10.4 nM.

In the case of c1ccc2c(c1)-c1cccc3cccc-2c13 [fluoranthene], the “binding of fluoranthene by polystyrene of tissue culture plates” value ([2]; 297 nM in L-15/ex, 10 min, 2, 4, 24 h) is reported as “high affinity” and the “time of exposure until sorption equilibrium is reached” value ([2]; single dose 297 nM (60 ng/ml) in L-15/ex in empty wells, methanol extract, HPLC) is reported as “less than 24 h”.
